The source of these data is patent US5189211A, “Sulfonamide derivatives” (Taisho Pharmaceutical Co., Ltd., priority 1990, dated 1993).

Experiment [1] relates to blood platelet aggregation. The experiment is described as follows: In vitro test in rabbit: inhibition of U-46619-induced blood platelet aggregation in platelet rich plasma (thromboxane A2 antagonism). In kind it is cell-based, male New Zealand strain house rabbits. To be noted: rabbit PRP, U-46619 final concentration 5 μM, 37° C., 3 minutes preincubation, measured for 5 minutes, read-out: IC50 (concentration of the test drug required to bring 50% inhibition to the maximum aggregation rate). As to the method: Experiment [In Vitro Test in Rabbit]
The remaining blood was centrifuged at 1500 g for 10 minutes to give platelet poor prasma (PPP). Platelet count of PRP was adjusted to 50-60×10^4 /μl by dilution of PRP by PPP.
Namely, a compound of Formula I as a test drug was dissolved in dimethyl sulfoxide and adjusted to the desired concentration with physiological saline solution.

A further experiment concerns thrombocytopenia. The experiment is described as follows: Test of acute thrombocytopenia in mice (U-46619-induced). It is filed as in vivo, male ICR mice. To be noted: administered peritoneally 30 seconds prior to U-46619 25 μg/kg caudal vein, platelet count 30 seconds after injection, class by dose giving more than 50% inhibition. As to the method: Experiment 2 [Test of Acute Thrombocytopenia in Mice]
Male ICR mice weighting 25 g were used (7-11 animals for each group).
Thrombocytopenia was induced by injection of an aggregation-inducing substance (U-46619) having thromboxane A2 -like action in amount of 25 μg/kg from the caudal vein. At 30 seconds after injection of U-46619, 20 μl of the blood was collected from the femoral artery, and the platelet counts were immediately measured by means of an automatic blood cell counter (CC-180A, made by Toa Iyoudenshi Co.).
The compound of Formula I was suspended in 5% gum arabic solution and administered peritoneally to the test animals 30 seconds prior to injection of U-46619. As a comparative drug, BM was tested as above.
The inhibition ratio of the thrombocytopenia was calculated by the proportion of the decrease ratio of platelet count of the group treated with the test drug to that of the group with 5% gum arabic solution, and the activity was determined by the following criterion.
+: More than 50% inhibition at a dose of 1.0 mg/kg
++: More than 50% inhibition at a dose of 0.3 mg/kg
+++: More than 50% inhibition at a dose of 0.1 mg/kg

[2] abbreviates: Oryctolagus cuniculus, Platelet.

Like-named read-outs stand apart in the source and are kept apart here.

Take “4-[2-(4-Methylsulfonylamino)ethylthio]phenylacetic acid [Compound No. 94]”: in experiment [1], the IC50 stood at 3100 nM. With `O=C(O)COc1ccc(CCNS(=O)(=O)c2ccccc2)cc1` [BM, 4-[2-(phenylsulfonylamino)ethyl]phenoxyacetic acid, reference compound], the IC50 in experiment [1] (setting [2]) is 12000 nM. Moreover, in the experiment on thrombocytopenia, the “Activity (inhibition ratio of the thrombocytopenia)” value is given as “+ (More than 50% inhibition at a dose of 1.0 mg/kg)”.

Consider `O=C(O)CCc1ccc(SCCNS(=O)(=O)c2ccc(Cl)cc2)cc1` [Compound No. 52, 3-{4-[2-(4-chlorophenylsulfonylamino)ethylthio]phenyl}propionic acid], for which, in experiment [1] (setting [2]), the IC50 was found to be 1100 nM. Same read-out and setting: for `Cc1ccc(S(=O)(=O)NCCSc2ccc(CCC(=O)O)cc2)cc1` [Compound No. 53, 3-{4-[2-(4-Methylphenylsulfonylamino)ethylthio]phenyl}propionic acid] the value was 5800 nM; for `O=C(O)CCc1ccc(SCCNS(=O)(=O)c2ccc(F)cc2)cc1` [Compound No. 54, 3-{4-[2-(4-Fluorophenylsulfonylamino)ethylthio]phenyl}propionic acid], 2400 nM; for `O=C(O)CCc1ccc(SCCNS(=O)(=O)c2ccc(Br)cc2)cc1` [Compound No. 55, 3-{4-[2-(4-Bromophenylsulfonylamino)ethylthio]phenyl}propionic acid], 1700 nM. As to `CCOC(=O)COc1ccc(CSCCNS(=O)(=O)c2ccc(Cl)cc2)cc1` [Compound No. 63, Ethyl 4-[2-(4-chlorophenylsulfonylamino)ethylthiomethyl]phenoxyacetate], the IC50 in experiment [1] (setting [2]) is 7300 nM.

With `O=C(O)COc1c(F)cc(SCCNS(=O)(=O)c2ccccc2)cc1F` [Compound No. 67, 2,6-difluoro-4-[2-(phenylsulfonylamino)ethylthio]phenoxyacetic acid], the IC50 in experiment [1] (setting [2]) was found to be 1800 nM. Also, in the experiment with thrombocytopenia, the “Activity (inhibition ratio of the thrombocytopenia)” value is listed as “+ (More than 50% inhibition at a dose of 1.0 mg/kg)”.

For the compound `O=C(O)COc1c(F)cc(SCCNS(=O)(=O)c2ccc(Cl)cc2)cc1F` [Compound No. 68, 2.6-Difluoro-4-[2-(4-chlorophenylsulfonylamino)ethylthio]phenoxyacetic acid], the IC50 in experiment [1] (setting [2]) was determined as 300 nM. In addition, the “Activity (inhibition ratio of the thrombocytopenia)” value in the experiment with thrombocytopenia is given as “+++ (More than 50% inhibition at a dose of 0.1 mg/kg)”. The corresponding values for `Cc1ccc(S(=O)(=O)NCCSc2cc(F)c(OCC(=O)O)c(F)c2)cc1` [Compound No. 69, 2,6-Difluoro-4-[2-(4-methylphenylsulfonylamino)ethylthio]phenoxyacetic acid] are 540 nM and “++ (More than 50% inhibition at a dose of 0.3 mg/kg)”. For `O=C(O)COc1ccc(SCCNS(=O)(=O)c2ccc(Cl)cc2)cc1F` [Compound No. 71, 2-Fluoro-4-[2-(4-chlorophenylsulfonylamino)ethylthio]phenoxyacetic acid], the IC50 in experiment [1] (setting [2]) came out at 1500 nM. Further, the “Activity (inhibition ratio of the thrombocytopenia)” value in the experiment on thrombocytopenia is “+ (More than 50% inhibition at a dose of 1.0 mg/kg)”. As for `O=C(O)COc1ccc(SCCNS(=O)(=O)c2ccc(Cl)cc2)cc1` [Compound No. 74, 4-[2-(4-Chlorophenylsulfonylamino)ethylthio]phenoxyacetic acid], the IC50 in experiment [1] (setting [2]) is 4500 nM. Consider `O=C(O)COc1ccc(SCCNS(=O)(=O)c2ccc(Br)cc2)cc1` [Compound No. 78, 4-[2-(4-Bromophenylsulfonylamino)ethylthio]phenoxyacetic acid], for which, in experiment [1] (setting [2]), the IC50 amounted to 5200 nM. Regarding `O=C(O)Cc1ccc(SCCNS(=O)(=O)c2ccc(Cl)cc2)cc1` [Compound No. 93, 4-[2-(4-Chlorophenylsulfonylamino)ethylthio]phenylacetic acid], the IC50 in experiment [1] (setting [2]) came to 1500 nM. In addition, the “Activity (inhibition ratio of the thrombocytopenia)” value in the experiment with thrombocytopenia is on record as “+ (More than 50% inhibition at a dose of 1.0 mg/kg)”. Consider `O=C(O)CCc1ccc(SCCNS(=O)(=O)c2ccc([N+](=O)[O-])cc2)cc1` [Compound No. 103, 3-{4-[2-(4-Nitrophenylsulfonylamino)ethylthio]phenyl}propionic acid], for which, in experiment [1] (setting [2]), the IC50 was found to be 1500 nM.

In the case of `O=C(O)COc1ccc(SCCNS(=O)(=O)c2ccc(F)cc2)cc1F` [Compound No. 105, 2-Fluoro-4-[2-(4-fluorophenylsulfonylamino)ethylthio]phenoxyacetic acid], the IC50 in experiment [1] (setting [2]) stood at 4500 nM. Turning to `O=C(O)COc1ccc(SCCNS(=O)(=O)c2ccc(Br)cc2)cc1F` [Compound No. 106, 2-Fluoro-4-[2-(4-bromophenylsulfonylamino)ethylthio]phenoxyacetic acid], the IC50 in experiment [1] (setting [2]) was 2000 nM. As to `COc1ccc(S(=O)(=O)NCCSc2ccc(OCC(=O)O)c(F)c2)cc1` [Compound No. 107, 2-Fluoro-4-[2-(4-methoxyphenylsulfonylamino)ethylthio]phenoxyacetic acid], the IC50 in experiment [1] (setting [2]) was 7400 nM. Turning to `O=C(O)Cc1ccc(SCCNS(=O)(=O)c2ccc(F)cc2)cc1` [Compound No. 112, 4-[2-(4-Fluorophenylsulfonylamino)ethylthio]phenylacetic acid], the IC50 in experiment [1] (setting [2]) amounted to 630 nM. The same measure, in the same setting: for `O=C(O)Cc1ccc(SCCNS(=O)(=O)c2ccc(Br)cc2)cc1` [Compound No. 113, 4-[2-(4-Bromophenylsulfonylamino)ethylthio]phenylacetic acid] the value was 300 nM; for `COc1ccc(S(=O)(=O)NCCSc2ccc(CC(=O)O)cc2)cc1` [Compound No. 114, 4-[2-(4-Methoxyphenylsulfonylamino)ethylthio]phenylacetic acid], 920 nM; for `O=C(O)Cc1ccc(SCCNS(=O)(=O)c2ccc([N+](=O)[O-])cc2)cc1` [Compound No. 115, 4-[2-(4-Nitrophenylsulfonylamino)ethylthio]phenylacetic acid], 930 nM. The same measure, in the same setting: with `O=C(O)COc1c(F)cc(SCCNS(=O)(=O)c2ccc(F)cc2)cc1F` [Compound No. 119, 2,6-Difluoro-4-[2-(4-fluorophenylsulfonylamino)ethylthio]phenoxyacetic acid] the figure was 580 nM; with `O=C(O)COc1c(F)cc(SCCNS(=O)(=O)c2ccc(Br)cc2)cc1F` [Compound No. 120, 2,6-Difluoro-4-[2-(4-bromophenylsulfonylamino)ethylthio]phenoxyacetic acid], 330 nM; with `O=C(O)COc1c(F)cc(SCCNS(=O)(=O)c2ccc([N+](=O)[O-])cc2)cc1F` [Compound No. 121, 2,6-Difluoro-4-[2-(4-nitrophenylsulfonylamino)ethylthio]phenoxyacetic acid], 750 nM. Still for that read-out and setting: with `COc1ccc(S(=O)(=O)NCCSc2cc(F)c(OCC(=O)O)c(F)c2)cc1` [Compound No. 125, 2,6-Difluoro-4-[2-(4-methoxyphenylsulfonylamino)ethylthio]phenoxyacetic acid] the figure was 670 nM.
